Test systems include SF-539; SNB-19; U-251; MOLT-4; HCC 2998; HL-60; NCI-H23; LOX IMVI; KM12; COLO 205; K562; OVCAR-3; SK-MEL-2; 786-0; HT-29; MDA-MB-231; MDA-MB-435; BT-549; MCF7.
Test in all cases: DTP human tumour cell line panel, 48 h

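All cell lines were grown in 96-well plates and treated with compound for 48 hours. GI50 = concentration required for 50% inhibition of growth.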 Active and inactive are the calls of the source. Rule as the data show it: active = GI50 up to about 1.1 µM and inactive = higher.

What is called GI50 is the concentration giving 50% growth inhibition. Turning to `Cc1nc(-n2nc(-c3ccccc3)cc2-c2ccccc2)sc1C(=O)/C=C/c1ccccc1`, the GI50 in the assay with SF-539 was > 100 µM (inactive); in the assay with SNB-19, > 100 µM (inactive); in the assay with U-251, > 100 µM (inactive); in the assay on MOLT-4, 31.8 µM (inactive); in the assay on HCC 2998 it was > 100 µM (inactive); in the assay with HL-60, 60.4 µM (inactive). Further, the GI50 in the assay on NCI-H23 is > 100 µM (inactive); in the assay with LOX IMVI, > 100 µM (inactive); in the assay with KM12, 84.3 µM (inactive); in the assay with COLO 205, > 100 µM (inactive); with K562, 49.8 µM (inactive); in the assay with OVCAR-3 it was 81.1 µM (inactive). Besides, the GI50 in the assay with SK-MEL-2, in the assay with 786-0 and in the assay on HT-29 was > 100 µM (inactive) in each case.
`N#CC(CC(=O)O)=C(c1ccccc1)c1ccccc1`: the GI50 in the assay with SF-539, in the assay on SNB-19, in the assay on U-251, in the assay with HCC 2998, with MDA-MB-231 and in the assay with MDA-MB-435 was > 100 µM (inactive) in each case. The GI50 with NCI-H23, with BT-549, in the assay on LOX IMVI, in the assay with KM12, in the assay with COLO 205 and in the assay on K562 was > 100 µM (inactive) in each case. Besides, the GI50 in the assay on OVCAR-3, with SK-MEL-2, in the assay on MCF7, in the assay with 786-0 and in the assay with HT-29 was > 100 µM (inactive) in each case.
Take `O=C(O)CCC(NC(=O)c1ccc(CNc2nc3ccccc3nc2C(=O)O)cc1)C(=O)O` (stereo unspecified): the GI50 in the assay with SNB-19, with U-251, with MOLT-4, with MDA-MB-231, in the assay with MDA-MB-435 and in the assay on NCI-H23 was > 100 µM (inactive) in each case. The GI50 with LOX IMVI, with KM12, in the assay on COLO 205, in the assay with K562, in the assay on OVCAR-3 and in the assay on SK-MEL-2 was > 100 µM (inactive) in each case. Moreover, the GI50 in the assay on MCF7, in the assay on 786-0 and with HT-29 was > 100 µM (inactive) each time.
As to `O=C(Nc1ccc([N+](=O)[O-])cc1)C1C(=O)C(=O)N(c2ccc([N+](=O)[O-])cc2)C1=O` (stereo unspecified), the GI50 in the assay with SF-539 is 94.8 µM (inactive); in the assay with SNB-19, > 100 µM (inactive); with U-251, > 100 µM (inactive); in the assay on MOLT-4, > 100 µM (inactive); in the assay with HCC 2998 it was > 100 µM (inactive); in the assay on HL-60, > 100 µM (inactive). Moreover, the GI50 in the assay with NCI-H23 is > 100 µM (inactive); with LOX IMVI it was 16.1 µM (inactive); with KM12, > 100 µM (inactive); with COLO 205, 35.8 µM (inactive); in the assay on K562, 8.07 µM (inactive); in the assay with OVCAR-3, > 100 µM (inactive). Also, the GI50 in the assay on SK-MEL-2 was > 100 µM (inactive); in the assay on 786-0, 67.1 µM (inactive); with HT-29 it was > 100 µM (inactive).
For `CC1CCC(=O)NCCCCC(=O)N1` (stereo unspecified), the GI50 with SF-539, in the assay with SNB-19, in the assay with U-251, in the assay on MOLT-4, in the assay on HCC 2998 and in the assay on HL-60 was > 100 µM (inactive) throughout. The GI50 in the assay on NCI-H23, in the assay with LOX IMVI, with KM12, in the assay with COLO 205, in the assay with K562 and in the assay with OVCAR-3 was > 100 µM (inactive) in each case. Moreover, the GI50 in the assay on SK-MEL-2, in the assay on 786-0 and in the assay with HT-29 was > 100 µM (inactive) in each case.
`CCN(CC)CCn1c(C(C)(C)C)nc2ccccc21`: the GI50 was > 100 µM (inactive) in the assay on SF-539; > 100 µM (inactive) with SNB-19; 30.7 µM (inactive) with U-251; > 100 µM (inactive) with MOLT-4; > 100 µM (inactive) with HCC 2998; > 100 µM (inactive) in the assay on HL-60. The GI50 in the assay on NCI-H23 was > 100 µM (inactive); in the assay with BT-549 it was 36.1 µM (inactive); in the assay with KM12, > 100 µM (inactive); with COLO 205, > 100 µM (inactive); with K562, > 100 µM (inactive); with OVCAR-3, > 100 µM (inactive). For the same compound, the GI50 is > 100 µM (inactive) in the assay with MCF7, 18.7 µM (inactive) in the assay with 786-0 and > 100 µM (inactive) in the assay on HT-29.
Consider `CCOC(=O)c1c(-c2ccc(OC)c(O)c2)c(C#N)c(=S)n(C2OC(CO)C(O)C(O)C2O)c1-c1ccccc1` (stereo unspecified), for which the GI50 in the assay with SNB-19, in the assay with U-251, in the assay with MOLT-4, in the assay on HCC 2998, in the assay with MDA-MB-435 and in the assay on NCI-H23 was > 100 µM (inactive) throughout. For the same compound, the GI50 in the assay on LOX IMVI, in the assay with KM12, in the assay on COLO 205, in the assay with K562, in the assay on 786-0 and in the assay with HT-29 was > 100 µM (inactive) in each case.
Regarding `COC(=O)CCC(=O)Nc1cc(C)ccc1C`, the GI50 with SF-539, with SNB-19, with U-251, in the assay on MOLT-4, in the assay on HCC 2998 and in the assay on HL-60 was > 100 µM (inactive) each time. Besides, the GI50 in the assay on NCI-H23, in the assay on LOX IMVI, with KM12, with COLO 205, in the assay with K562 and in the assay on OVCAR-3 was > 100 µM (inactive) in each case. Further, the GI50 in the assay with SK-MEL-2, with 786-0 and with HT-29 was > 100 µM (inactive) in each case.
With `Cc1ccc(S(=O)(=O)NC(=O)Nc2ccc(C(=O)O)c(O)c2)cc1`, the GI50 with SF-539, in the assay on SNB-19, with U-251, in the assay on MOLT-4, with HCC 2998 and with MDA-MB-231 was > 100 µM (inactive) in each case. Moreover, the GI50 in the assay with MDA-MB-435, in the assay on HL-60, with NCI-H23, in the assay with LOX IMVI, in the assay on KM12 and in the assay on COLO 205 was > 100 µM (inactive) in each case. Also, the GI50 with K562, in the assay with OVCAR-3, in the assay on SK-MEL-2, in the assay with MCF7, in the assay with 786-0 and with HT-29 was > 100 µM (inactive) in each case.
With `C/C(=N\NS(=O)(=O)c1ccc(C)cc1)C(CN(C)C)C(c1ccccc1)c1c(O)c2ccccc2oc1=O` (stereo unspecified), the GI50 in the assay with SF-539, in the assay on SNB-19, in the assay on U-251, in the assay with MOLT-4, with MDA-MB-231 and in the assay on MDA-MB-435 was > 100 µM (inactive) each time. For the same compound, the GI50 in the assay with HL-60 was > 100 µM (inactive); in the assay with NCI-H23, > 100 µM (inactive); in the assay with BT-549, > 100 µM (inactive); with LOX IMVI, > 100 µM (inactive); with KM12, > 100 µM (inactive); in the assay with COLO 205, > 95.3 µM (inactive). Also, the GI50 in the assay with K562 was > 84.5 µM (inactive); with OVCAR-3 it was > 100 µM (inactive); with SK-MEL-2, > 100 µM (inactive); with MCF7, > 100 µM (inactive); with 786-0, > 100 µM (inactive); with HT-29 it was > 100 µM (inactive).
For `CN1CCCNCCN(CCc2ccccn2)CCCN(C)CC1`, the GI50 in the assay on SF-539 was > 100 µM (inactive); in the assay on SNB-19, > 100 µM (inactive); in the assay on U-251, > 94.6 µM (inactive); with MOLT-4, > 100 µM (inactive); in the assay on HCC 2998, > 100 µM (inactive); with HL-60, > 48.8 µM (inactive). In addition, the GI50 in the assay with NCI-H23 is > 100 µM (inactive); in the assay with LOX IMVI, > 50.1 µM (inactive); with KM12 it was > 67.6 µM (inactive); in the assay with COLO 205, > 43.5 µM (inactive); with K562, > 44.9 µM (inactive); in the assay on OVCAR-3, > 100 µM (inactive). Besides, the values for the GI50 in the assay on SK-MEL-2, with 786-0 and with HT-29 were > 100 µM (inactive), 24.2 µM (inactive) and > 100 µM (inactive), respectively.
Take `CC1CC(=O)CC[C@@H]1OCc1ccccc1` (stereo partly specified): the GI50 was > 100 µM (inactive) in the assay with SF-539; > 100 µM (inactive) in the assay on SNB-19; > 100 µM (inactive) with U-251; 54.3 µM (inactive) with MOLT-4; > 100 µM (inactive) in the assay on HCC 2998; > 100 µM (inactive) with HL-60. In addition, the GI50 in the assay with NCI-H23 was > 100 µM (inactive); with LOX IMVI, > 100 µM (inactive); in the assay on KM12 it was > 100 µM (inactive); in the assay with COLO 205, > 100 µM (inactive); in the assay with K562, 58.1 µM (inactive); with OVCAR-3 it was > 100 µM (inactive). The GI50 in the assay with SK-MEL-2, in the assay with 786-0 and in the assay with HT-29 was > 100 µM (inactive) in each case.
In the case of `CCN(CCCl)CCNc1c2ccccc2nc2ccc(OC)cc12`, the 50% growth inhibitory concentration (GI50) in the assay with SF-539 is 0.502 µM (active); in the assay on SNB-19, 1.41 µM (inactive); in the assay on U-251, 0.906 µM (active); in the assay with MOLT-4, 0.0426 µM (active); in the assay on HCC 2998, 0.847 µM (active); in the assay on HL-60 it was 0.199 µM (active). For the same compound, the 50% growth inhibitory concentration (GI50) with NCI-H23 is 0.514 µM (active); in the assay with LOX IMVI it was 0.31 µM (active); in the assay on KM12, 0.603 µM (active); in the assay with COLO 205 it was 0.136 µM (active); in the assay on K562, 0.213 µM (active); in the assay with OVCAR-3 it was 1.38 µM (inactive). In addition, the GI50 in the assay on SK-MEL-2 is 1.03 µM (active); in the assay on MCF7, 0.378 µM (active); in the assay with 786-0, 0.254 µM (active); in the assay on HT-29, 0.267 µM (active).

The values above are taken from ChEMBL document CHEMBL1201862, “PubChem BioAssay data set” (2004).
